Measurements: US8906416B2, “Xanthenedione derivatives for the treatment of pigmentation and skin ageing disorders” (Pierre Fabre Dermo-Cosmetique, priority 2010, dated 2014)

Experiment: Antioxidant capacity by chemiluminescence (Photochem Analytik Jena)
Format: biochemical
Conditions: superoxide anion trapping
Procedure: This test is used to determine the antioxidant capacity of molecules. It is a method that generates free radicals by a photochemical signal. The intensity of the oxidation is 1000 times greater than those obtained under normal conditions.
The detection is performed by chemiluminescence. It enables the evaluation of hydrosoluble and liposoluble antioxidant molecules or extracts.
The results are expressed respectively in equivalent quantity of vitamin C or Trolox (6-hydroxy-2,5,7,8-tetramethylchroman-2-carboxylic acid). The sensitivity is of the order of the nanomole.
The antioxidant activity studied in this test represents the capacity to specifically trap the superoxide anions by chemiluminescence.
The quantified results are expressed in equivalent Trolox (standard), i.e. in “μg of product for 1 μg of Trolox”. This signifies that a quantity x of sample is required to obtain an activity equivalent to the activity detected for 1 μg of standard. It is an anti-oxidant power relative to a reference, which can be determined independently of the tested concentration.
The superoxide radical: O2^o^− is generated by a photochemical reaction: L+hv(UV)+O2→L*O2→L^o^++O2^o^− • L*: luminol in the excited state L^o+: luminol radical Detection of the Signal:
Part of the superoxide anions is quenched by anti-oxidants. The remaining free radicals are quantified by chemiluminescence. L^o^++O2^o^−→N2+[…]→AP^2−+hv(luminescence) AP*^2−: aminophthalate in the excited state

Structure (SMILES) | μg of sample for 1 μg of Trolox
CCCCC/C=C\C/C=C\CCCCCCCC(=O)Oc1ccc(C2C3=C(CC(C)(C)CC3=O)OC3=C2C(=O)CC(C)(C)C3)cc1OC [Example 7, (9Z,12Z)-2-methoxy-4-(3,3,6,6-tetramethyl-1,8-dioxo-2,3,4,5,6,7,8,9-octahydro-1H-xanthen-9-yl)phenyl octadeca-9,12-dienoate] | 19.7 μg of sample for 1 μg of Trolox
Cc1cc(C2C3=C(CC(C)(C)CC3=O)OC3=C2C(=O)CC(C)(C)C3)cc(C)c1O [Example 10, 9-(4-hydroxy-3,5-dimethylphenyl)-3,3,6,6-tetramethyl-3,4,5,6,7,9-hexahydro-1H-xanthene-1,8(2H)-dione] | 4.10 μg of sample for 1 μg of Trolox
COc1cc(C2C3=C(CCCC3=O)OC3=C2C(=O)CCC3)ccc1O [Example 11, 9-(4-hydroxy-3-methoxyphenyl)-3,4,5,6,7,9-hexahydro-1H-xanthene-1,8(2H)-dione] | 1.07 μg of sample for 1 μg of Trolox
COc1cc(C2C3=C(CC(c4ccc(OC)c(OC)c4)CC3=O)OC3=C2C(=O)CC(c2ccc(OC)c(OC)c2)C3)ccc1O (stereo not shown) [Example 14, 3,6-bis(3,4-dimethoxyphenyl)-9-(4-hydroxy-3-methoxyphenyl)-3,4,5,6,7,9-hexahydro-1H-xanthene-1,8(2H)-dione] | 2.27 μg of sample for 1 μg of Trolox
COc1cc(C2C3=C(CC(C)(C)CC3=O)OC3=C2C(=O)CC(C)(C)C3)cc(Br)c1O [Example 17, 9-(3-bromo-4-hydroxy-5-methoxyphenyl)-3,3,6,6-tetramethyl-3,4,5,6,7,9-hexahydro-1H-xanthene-1,8(2H)-dione] | 5.18 μg of sample for 1 μg of Trolox
COc1cc(C2C3=C(CC(C)(C)CC3=O)OC3=C2C(=O)CC(C)(C)C3)cc(I)c1O [Example 18, 9-(4-hydroxy-3-iodo-5-methoxyphenyl)-3,3,6,6-tetramethyl-3,4,5,6,7,9-hexahydro-1H-xanthene-1,8(2H)-dione] | 4.66 μg of sample for 1 μg of Trolox
CC(=O)Oc1ccc(C2C3=C(CC(C)(C)CC3=O)OC3=C2C(=O)CC(C)(C)C3)cc1OC(C)=O [Example 27, 4-(3,3,6,6-tetramethyl-1,8-dioxo-2,3,4,5,6,7,8,9-octahydro-1H-xanthen-9-yl)-1,2-phenylene diacetate] | 0.096 μg of sample for 1 μg of Trolox
